Measured values taken from PubChem BioAssay (NCI).
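96-well plates; 48 h exposure; 5 concentrations. Endpoints by linear interpolation between flanking doses. Not reached: highest tested concentration assigned. GI50 = concentration required for 50% inhibition of growth. Definition used: TGI = concentration required for complete inhibition of growth.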

What was measured:
Assay in all cases: growth of human tumour cells (NCI), 48 h
KM12 colon = test system: KM12 colon
UACC-257 melanoma = test system: UACC-257 melanoma
RPMI-8226 leukemia = test system: RPMI-8226 leukemia
TK-10 renal = test system: TK-10 renal
SF-268 CNS = test system: SF-268 CNS
HCT-116 colon = test system: HCT-116 colon
HCT-15 colon = test system: HCT-15 colon
M14 melanoma = test system: M14 melanoma
OVCAR-5 ovarian = test system: OVCAR-5 ovarian
PC-3 prostate = test system: PC-3 prostate

Compound	TGI (KM12 colon)	TGI (UACC-257 melanoma)	TGI (RPMI-8226 leukemia)	TGI (TK-10 renal)	TGI (SF-268 CNS)	TGI (HCT-116 colon)	TGI (HCT-15 colon)	TGI (M14 melanoma)	TGI (OVCAR-5 ovarian)	GI50 (OVCAR-5 ovarian)	GI50 (KM12 colon)	GI50 (UACC-257 melanoma)	GI50 (PC-3 prostate)	TGI (PC-3 prostate)	GI50 (RPMI-8226 leukemia)	GI50 (TK-10 renal)	GI50 (SF-268 CNS)	GI50 (HCT-15 colon)	GI50 (M14 melanoma)	GI50 (HCT-116 colon)
O=[N+]([O-])c1ccc(Cl)cc1C1SCc2nc3ccccc3n21 (stereo unspecified)	> 100 µM	> 100 µM	> 100 µM	> 100 µM	> 100 µM	> 100 µM	> 100 µM	> 100 µM												
CC(C)c1cc(OCC(O)CO)cc(C(C)C)c1 (stereo unspecified)	> 100 µM	> 100 µM		> 100 µM	> 100 µM	> 100 µM	> 100 µM	> 100 µM	> 100 µM											
Nc1n[nH]c(CCc2nc(N)n[nH]2)n1	> 100 µM	> 100 µM	> 100 µM	> 100 µM	> 100 µM	> 100 µM	> 100 µM	> 100 µM	> 100 µM											
O=C(CC1C(=O)Nc2ccccc2S1=O)Nc1ccc(Cl)cc1 (stereo unspecified)	> 100 µM	> 100 µM	> 100 µM	> 100 µM	> 100 µM		> 100 µM	> 100 µM	> 100 µM											
COc1cc2c3c(n(CCCN=[N+]=[N-])c(=O)c2cc1OC)-c1ccc(N(C)C)cc1C3=O	> 100 µM	> 100 µM	> 100 µM	> 100 µM	> 100 µM		> 100 µM	> 100 µM	> 100 µM	> 100 µM	> 100 µM	> 100 µM	> 100 µM	> 100 µM	> 100 µM	> 100 µM	> 100 µM	> 100 µM	> 100 µM	
O=C(/C=C1/Nc2ccc([N+](=O)[O-])cc2NC1O)c1cccc([N+](=O)[O-])c1 (stereo unspecified)		> 100 µM		88.4 µM	> 100 µM	> 100 µM	> 100 µM	> 100 µM												
CC1(C)OC(=O)C=C([O-])O1.CC1(C)OC(=O)C=C([O-])O1.CC[O-].CC[O-].[Ti+4]	> 100 µM	> 100 µM	> 100 µM	> 100 µM	> 100 µM	> 100 µM	> 100 µM	> 100 µM	> 100 µM	> 100 µM	> 100 µM	> 100 µM			> 100 µM	> 100 µM	> 100 µM	> 100 µM	> 100 µM	> 100 µM
CCn1c2ccccc2c2cc(C(O)c3cccc4ncccc34)ccc21 (stereo unspecified)	6.56 µM		7.85 µM	> 78.6 µM	> 73.6 µM	15.4 µM	12.1 µM	> 100 µM	> 100 µM	3.25 µM	0.0421 µM		0.0413 µM	> 85.7 µM	0.0724 µM	3.7 µM	0.068 µM	0.0409 µM	0.0468 µM	0.0441 µM
O=C1CC(c2ccc(Cl)cc2)Oc2ccccc21 (stereo unspecified)	31.5 µM	> 100 µM	9.12 µM	63.4 µM	> 100 µM	> 100 µM	48 µM	58.4 µM						52.5 µM						
CN(C)C(=S)/N=c1\ss/c(=N\S(=O)(=O)c2ccccc2)n1N(C)C	> 100 µM	> 100 µM	> 100 µM	> 100 µM	> 100 µM	> 100 µM	> 100 µM	> 100 µM												
COC(=O)CCC(=O)NC1C2CC3CC(C2)CC1C3 (stereo unspecified)	> 100 µM	> 100 µM	> 100 µM	> 100 µM	> 100 µM	> 100 µM	> 100 µM	> 100 µM	> 100 µM											
Cc1cccc(Nc2cnc(N)nc2N)c1	> 100 µM	> 100 µM	> 100 µM	> 100 µM		> 100 µM	> 100 µM	> 100 µM						> 100 µM						
CN1C(Cl)=NS(=O)(=O)c2ccccc21	> 100 µM	> 100 µM		> 100 µM	> 100 µM	> 100 µM	> 100 µM	> 100 µM	> 100 µM					> 100 µM						
O=C(O)CCSC(=O)Nc1ccc(N=Nc2ccccc2)cc1	> 100 µM	> 100 µM	> 100 µM	> 100 µM	> 100 µM	> 100 µM	> 100 µM	> 100 µM	> 100 µM											
CCC(=O)N/N=C(\C=C\c1cccc(O)c1)c1sc(Nc2ccc(C)cc2[N+](=O)[O-])nc1C	> 100 µM	> 100 µM	> 100 µM	> 100 µM	> 100 µM	> 100 µM	> 100 µM	> 100 µM	> 100 µM											
O=C(O)C1=C(C(=O)Nc2ccc(NC(=O)C3=C(C(=O)O)C4C=CC3C4)cc2)C2C=CC1C2	> 100 µM	> 100 µM	> 100 µM	> 100 µM	> 100 µM	> 100 µM	> 100 µM	> 100 µM	> 100 µM											
c1ccc(CNc2nc(Nc3ccccc3)nc3ccccc23)cc1	10.1 µM	3.78 µM	4.42 µM	4.53 µM	9.3 µM	3.3 µM		3.6 µM	4.19 µM	1.86 µM	2.92 µM	1.78 µM	1.66 µM	4.9 µM	1.41 µM	2.02 µM	3.01 µM		1.83 µM	1.71 µM
CC12Oc3ccc4ccccc4c3CC1Cc1c(ccc3ccccc13)O2 (stereo unspecified)	> 100 µM	> 100 µM		> 100 µM	> 100 µM	> 100 µM		> 100 µM	> 100 µM											
O=C1NC(=O)C2C1N(Cc1ccccc1)C(=O)N2Cc1ccccc1 (stereo unspecified)	> 100 µM	> 100 µM	> 100 µM	> 100 µM	> 100 µM	> 100 µM	> 100 µM	> 100 µM	> 100 µM											
c1ccc2c(c1)C1=NCCN1c1ccccc1-2	14.6 µM	7.71 µM	6.97 µM	12 µM	11 µM	10.4 µM	12.2 µM	13.3 µM	15.2 µM											
